The source made the active and inactive calls. The rule behind the calls is not given here.
System: CCRIS mutagenicity, Ames/micronucleus/aberration tests
Assay: CCRIS mutagenicity studies
[1] = Test System: AMES SALMONELLA TYPHIMURIUM, Strain/Indicator: TA98, Metabolic Activation: NONE, Method: STANDARD PLATE
[2] = Test System: AMES SALMONELLA TYPHIMURIUM, Strain/Indicator: TA100, Metabolic Activation: NONE, Method: STANDARD PLATE
[3] = Test System: AMES SALMONELLA TYPHIMURIUM, Strain/Indicator: TA100, Metabolic Activation: RAT, LIVER, S-9, AROCLOR 1254, Method: STANDARD PLATE
[4] = Test System: AMES SALMONELLA TYPHIMURIUM, Strain/Indicator: TA1535, Metabolic Activation: NONE, Method: STANDARD PLATE
[5] = Test System: AMES SALMONELLA TYPHIMURIUM, Strain/Indicator: TA98, Metabolic Activation: NONE, Method: PREINCUBATION
[6] = Test System: AMES SALMONELLA TYPHIMURIUM, Strain/Indicator: TA100, Metabolic Activation: NONE, Method: PREINCUBATION

SMILES: C[C@]12CC[C@H](OC(=O)COc3ccc(N(CCCl)CCCl)cc3)C[C@@H]1CC[C@@H]1[C@@H]2CC[C@]2(C)NC(=O)CC[C@@H]12
- mutagenic call [1]: inactive; negative
- mutagenic call (Test System: AMES SALMONELLA TYPHIMURIUM, Strain/Indicator: TA98, Metabolic Activation: RAT, LIVER, S-9, AROCLOR 1254, Method: STANDARD PLATE): inactive; negative
- mutagenic call [2]: active; positive
- mutagenic call [3]: active; positive
- mutagenic call [4]: active; positive
- mutagenic call (Test System: AMES SALMONELLA TYPHIMURIUM, Strain/Indicator: TA1535, Metabolic Activation: RAT, LIVER, S-9, AROCLOR 1254, Method: STANDARD PLATE): active; positive
- mutagenic call (Test System: AMES SALMONELLA TYPHIMURIUM, Strain/Indicator: TA1535, Metabolic Activation: S-9, Method: STANDARD PLATE): active; positive
- mutagenic call (Test System: AMES SALMONELLA TYPHIMURIUM, Strain/Indicator: TA1537, Metabolic Activation: NONE, Method: STANDARD PLATE): inactive; negative
- mutagenic call (Test System: AMES SALMONELLA TYPHIMURIUM, Strain/Indicator: TA1537, Metabolic Activation: RAT, LIVER, S-9, AROCLOR 1254, Method: STANDARD PLATE): inactive; negative
- mutagenic call (Test System: AMES SALMONELLA TYPHIMURIUM, Strain/Indicator: TA1537, Metabolic Activation: S-9, Method: STANDARD PLATE): inactive; negative

SMILES: C/C=C(\C)C(=O)O[C@H]1C[C@@H](OC(C)=O)[C@@]2(C(=O)OC)CO[C@H]3[C@@H](O)[C@@](C)([C@]45O[C@@]4(C)[C@H]4C[C@@H]5O[C@@H]5OC=C[C@@]54O)[C@H]4[C@]1(CO[C@]4(O)C(=O)OC)[C@@H]32
- mutagenic call (End Point: IN VIVO CHROMOSOMAL ABERRATIONS, Test System: BONE MARROW, Species: MOUSE, Strain/Sex: SWR/J/MALE,FEMALE, Route: ORAL (GAVAGE)): inactive; negative
- mutagenic call (End Point: In vivo chromosomal aberrations, Test System: Bone marrow cells, Species: Mouse, Strain/Sex: Swiss/Male, Route: Oral): active; positive (structural changes)

SMILES: O=[N+]([O-])c1ccc(S(=O)(=O)O)cc1
- mutagenic call [5]: inactive; negative
- mutagenic call (Test System: AMES SALMONELLA TYPHIMURIUM, Strain/Indicator: TA98, Metabolic Activation: RAT, LIVER, S-9, KANECHLOR 500, Method: PREINCUBATION): inactive; negative
- mutagenic call [6]: inactive; negative
- mutagenic call (Test System: AMES SALMONELLA TYPHIMURIUM, Strain/Indicator: TA100, Metabolic Activation: RAT, LIVER, S-9, KANECHLOR 500, Method: PREINCUBATION): inactive; negative

SMILES: ClCc1ccc2ccc3cc4ccccc4c4ccc1c2c34
- mutagenic call [1]: inactive; negative
- mutagenic call [2]: inactive; negative

SMILES: C[15NH][15N]=O
- mutagenic call [4]: active; positive
- mutagenic call (Test System: E. COLI, Strain/Indicator: WP2, Metabolic Activation: NONE, Method: STANDARD PLATE): active; positive
- mutagenic call (Test System: E. COLI, Strain/Indicator: WP2 UVRA, Metabolic Activation: NONE, Method: STANDARD PLATE): active; positive

SMILES: CC(=O)CC(=O)Nc1ccc(O)cc1
- mutagenic call (Test System: AMES SALMONELLA TYPHIMURIUM, Strain/Indicator: TA100, Metabolic Activation: HAMSTER, LIVER, S-9, KANECHLOR 400, Method: PREINCUBATION): inactive; negative
- mutagenic call [6]: inactive; negative

SMILES: Cc1ncc([N+](=O)[O-])n1CC(=O)O
- mutagenic call [2]: active; positive
- mutagenic call [3]: inactive; negative

SMILES: CN(C)c1ccc(N=Nc2cccc(CCl)c2)cc1
- mutagenic call (Test System: AMES SALMONELLA TYPHIMURIUM, Strain/Indicator: TA98, Metabolic Activation: RAT, LIVER, S-9, POLYCHLORINATED BIPHENYLS, Method: PREINCUBATION): active; positive
- mutagenic call (Test System: AMES SALMONELLA TYPHIMURIUM, Strain/Indicator: TA100, Metabolic Activation: RAT, LIVER, S-9, POLYCHLORINATED BIPHENYLS, Method: PREINCUBATION): active; positive

SMILES: CCOP(=O)=O.CCOP(=O)=O.CCOP(=O)=O.[Al+3]
- mutagenic call (End Point: IN VIVO MICRONUCLEUS, Test System: BONE MARROW POLYCHROMATIC ERYTHROCYTES, Species: MOUSE, Strain/Sex: SWISS/MALE, FEMALE, Route: IP 2X IN AQUEOUS SUSPENSION WITHIN 24 HR): active; positive

SMILES: CON
- mutagenic call (Test System: AMES SALMONELLA TYPHIMURIUM, Strain/Indicator: TA98, Metabolic Activation: HAMSTER, LIVER, S-9, AROCLOR 1254 (10%), Method: PREINCUBATION): inactive; negative
- mutagenic call [5]: inactive; negative
- mutagenic call (Test System: AMES SALMONELLA TYPHIMURIUM, Strain/Indicator: TA98, Metabolic Activation: RAT, LIVER, S-9, AROCLOR 1254 (10%), Method: PREINCUBATION): inactive; negative
- mutagenic call (Test System: AMES SALMONELLA TYPHIMURIUM, Strain/Indicator: TA100, Metabolic Activation: HAMSTER, LIVER, S-9, AROCLOR 1254 (10%), Method: PREINCUBATION): inactive; negative
- mutagenic call [6]: inactive; negative
- mutagenic call (Test System: AMES SALMONELLA TYPHIMURIUM, Strain/Indicator: TA100, Metabolic Activation: RAT, LIVER, S-9, AROCLOR 1254 (10%), Method: PREINCUBATION): inactive; negative
- mutagenic call (Test System: AMES SALMONELLA TYPHIMURIUM, Strain/Indicator: TA1535, Metabolic Activation: HAMSTER, LIVER, S-9, AROCLOR 1254 (10%), Method: PREINCUBATION): inactive; negative
- mutagenic call (Test System: AMES SALMONELLA TYPHIMURIUM, Strain/Indicator: TA1535, Metabolic Activation: NONE, Method: PREINCUBATION): inactive; negative
- mutagenic call (Test System: AMES SALMONELLA TYPHIMURIUM, Strain/Indicator: TA1535, Metabolic Activation: RAT, LIVER, S-9, AROCLOR 1254 (10%), Method: PREINCUBATION): inactive; negative
- mutagenic call (Test System: AMES SALMONELLA TYPHIMURIUM, Strain/Indicator: TA1537, Metabolic Activation: HAMSTER, LIVER, S-9, AROCLOR 1254 (10%), Method: PREINCUBATION): inactive; negative
- mutagenic call (Test System: AMES SALMONELLA TYPHIMURIUM, Strain/Indicator: TA1537, Metabolic Activation: NONE, Method: PREINCUBATION): inactive; negative
- mutagenic call (Test System: AMES SALMONELLA TYPHIMURIUM, Strain/Indicator: TA1537, Metabolic Activation: RAT, LIVER, S-9, AROCLOR 1254 (10%), Method: PREINCUBATION): inactive; negative

SMILES: O=C1C=C(N2CC2)C(=O)C(N2CC2)=C1N1CC1
- mutagenic call (Test System: UDS RODENT PRIMARY, Strain/Indicator: THY INCORP (NON-S-PHASE), Metabolic Activation: NONE, Method: LIQUID SCINTILLATION COUNTING): active; positive

From PubChem BioAssay AID1259407 (Chemical Carcinogenesis Research Information System (CCRIS), 2018)
